Laboratory results taken from patent US12139520B2 (priority 2020, dated 2024).
Bridge positions count the residues as written; N and C are the ends. Square brackets hold non-standard residues; d marks the D form. Peptide text beside a SMILES is read from it. Hyp = O=C(O)[C@@H]1C[C@@H](O)CN1; Cit = NC(=O)NCCC[C@H](N)C(=O)O

Assays:
[1] = target: hAM1 receptor (Homo sapiens, UniProt O60895+Q16602); assay: cAMP assay for in vitro receptor activation, hAM1-R; type: cell-based; conditions: cAMP assay, hAM1 receptor; read-out: hAM1R EC50
Chain of hAM1 receptor (Q16602 23-461): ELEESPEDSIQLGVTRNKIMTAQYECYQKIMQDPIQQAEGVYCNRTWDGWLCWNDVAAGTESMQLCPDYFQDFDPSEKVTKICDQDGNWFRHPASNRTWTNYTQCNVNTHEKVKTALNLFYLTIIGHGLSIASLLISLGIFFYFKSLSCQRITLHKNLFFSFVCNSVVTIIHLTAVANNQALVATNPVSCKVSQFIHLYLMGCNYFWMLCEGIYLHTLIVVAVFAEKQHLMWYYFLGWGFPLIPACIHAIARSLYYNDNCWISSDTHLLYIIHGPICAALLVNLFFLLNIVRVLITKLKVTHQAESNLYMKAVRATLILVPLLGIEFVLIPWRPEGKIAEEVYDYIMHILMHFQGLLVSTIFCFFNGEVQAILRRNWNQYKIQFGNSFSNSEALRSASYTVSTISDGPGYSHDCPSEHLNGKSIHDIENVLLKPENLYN
Chain of hAM1 receptor (O60895 43-175 partner): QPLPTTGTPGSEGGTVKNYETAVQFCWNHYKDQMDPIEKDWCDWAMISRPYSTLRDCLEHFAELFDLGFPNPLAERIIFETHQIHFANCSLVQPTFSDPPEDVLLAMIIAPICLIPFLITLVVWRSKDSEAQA
How it was run: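 Read-out is intracellular cAMP as a measure of receptor activation. Cells stably overexpressing hAM1 were subcloned to a monoclonal line, then thawed and seeded at 8000 cells/well in DPBS with 0.05% casein and the phosphodiesterase inhibitor IBMX at 0.5 mM.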

[2] = Physical stability of peptide analogues (Thioflavin T fibrillation); type: physicochemical; conditions: maximum ThT signal normalized between hAMY maximum and buffer background; 40° C., shaking, four days; pH 7 per table title
How it was run: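 Peptides in 50 mM sodium acetate pH 4 or 50 mM sodium phosphate pH 7 were preincubated 1 h, mixed with 4 μM ThT, held at 40° C with 700 rpm shaking before each read. Fluorescence (ex 450/em 480 nm) every 10 min for four days; LOESS-smoothed maximum signal normalized in percent between hAMY and buffer.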

SMILES: CC[C@H](C)[C@H](NC(=O)[C@H](CCC(N)=O)NC(=O)[C@H](Cc1c[nH]cn1)NC(=O)[C@H](C)NC(=O)[C@H](CC(C)C)NC(=O)[C@H](CCCNC(N)=O)NC(=O)[C@H](CCC(N)=O)NC(=O)[C@@H](NC(=O)[C@@H](NC(=O)[C@@H]1CSSC[C@H](NC(=O)CN)C(=O)N[C@@H](CCCNC(=N)N)C(=O)N[C@@H](Cc2ccccc2)C(=O)NCC(=O)N[C@@H]([C@@H](C)O)C(=O)N1)[C@@H](C)O)C(C)C)C(=O)N[C@@H](Cc1ccc(O)cc1)C(=O)N[C@@H](CCC(N)=O)C(=O)N[C@@H](Cc1ccccc1)C(=O)N[C@H](C(=O)N[C@@H](CC(=O)O)C(=O)N[C@@H](CCCCN)C(=O)N[C@@H](CC(=O)O)C(=O)N[C@@H](CCCCN)C(=O)N[C@@H](CC(=O)O)C(=O)N[C@@H](CC(N)=O)C(=O)N[C@H](C(=O)N[C@@H](C)C(=O)N1CCC[C@H]1C(=O)N[C@@H](CCCNC(=N)N)C(=O)N[C@H](C(=O)N[C@@H](CCCCN)C(=O)N[C@H](C(=O)N[C@@H](CO)C(=O)N1CCC[C@H]1C(=O)N[C@@H](CCC(N)=O)C(=O)NCC(=O)N1C[C@H](O)C[C@H]1C(N)=O)C(C)C)[C@@H](C)O)C(C)C)[C@@H](C)O [compound 287] (H-GCRFGTCTVQ[Cit]LAHQIYQFTDKDKDNVAPRTKVSPQG[Hyp]-NH2; disulfide 2-7; N-terminus assumed)
- EC50 [1]: > 5 µM
- Max ThT signal (%) [2]: 10.650%

SMILES: CC[C@H](C)[C@H](NC(=O)[C@H](CCC(N)=O)NC(=O)[C@H](Cc1c[nH]cn1)NC(=O)[C@H](C)NC(=O)[C@H](CC(C)C)NC(=O)[C@H](CCCNC(N)=O)NC(=O)[C@H](CCC(N)=O)NC(=O)[C@@H](NC(=O)[C@@H](NC(=O)[C@@H]1CSSC[C@H](NC(=O)CN)C(=O)N[C@@H](CCCNC(=N)N)C(=O)N[C@@H]([C@@H](C)O)C(=O)NCC(=O)N[C@@H]([C@@H](C)O)C(=O)N1)[C@@H](C)O)C(C)C)C(=O)N[C@@H](Cc1ccc(O)cc1)C(=O)N[C@@H](CCC(N)=O)C(=O)N[C@@H](Cc1ccccc1)C(=O)N[C@H](C(=O)N[C@@H](CC(=O)O)C(=O)N[C@@H](CCCCN)C(=O)N[C@@H](CC(=O)O)C(=O)N[C@@H](CCCCN)C(=O)N[C@@H](CC(=O)O)C(=O)N[C@@H](CC(N)=O)C(=O)N[C@H](C(=O)N[C@@H](C)C(=O)N1CCC[C@H]1C(=O)N[C@@H](CCCNC(=N)N)C(=O)N[C@H](C(=O)N[C@@H](CCCCN)C(=O)N[C@H](C(=O)NCC(=O)N1CCC[C@H]1C(=O)N[C@@H](CCC(N)=O)C(=O)NCC(=O)N1C[C@H](O)C[C@H]1C(N)=O)C(C)C)[C@@H](C)O)C(C)C)[C@@H](C)O [compound 292] (H-GCRTGTCTVQ[Cit]LAHQIYQFTDKDKDNVAPRTKVGPQG[Hyp]-NH2; disulfide 2-7; N-terminus assumed)
- EC50 [1]: > 5 µM
- Max ThT signal (%) [2]: 19.700%

SMILES: CC[C@H](C)[C@@H]1NC(=O)[C@H](CCCNC(=N)N)NC(=O)[C@@H](NC(=O)CN)CSSC[C@@H](C(=O)N[C@H](C(=O)N[C@H](C(=O)N[C@@H](CCC(N)=O)C(=O)N[C@@H](CCCNC(N)=O)C(=O)N[C@@H](CC(C)C)C(=O)N[C@@H](C)C(=O)N[C@@H](Cc2c[nH]cn2)C(=O)N[C@@H](CCC(N)=O)C(=O)N[C@H](C(=O)N[C@@H](Cc2ccc(O)cc2)C(=O)N[C@@H](CCC(N)=O)C(=O)N[C@@H](Cc2ccccc2)C(=O)N[C@H](C(=O)N[C@@H](CC(=O)O)C(=O)N[C@@H](CCCCN)C(=O)N[C@@H](Cc2ccccc2)C(=O)N[C@@H](CCCCN)C(=O)N[C@@H](CC(=O)O)C(=O)N[C@@H](CC(N)=O)C(=O)N[C@H](C(=O)N[C@@H](C)C(=O)N2CCC[C@H]2C(=O)N[C@@H](CCCNC(=N)N)C(=O)N[C@@H](CO)C(=O)N[C@@H](CCCCN)C(=O)N[C@H](C(=O)N[C@@H](CO)C(=O)N2CCC[C@H]2C(=O)N[C@@H](CCC(N)=O)C(=O)N[C@H](C(=O)N2C[C@H](O)C[C@H]2C(N)=O)[C@@H](C)O)[C@@H](C)CC)C(C)C)[C@@H](C)O)[C@@H](C)CC)C(C)C)[C@@H](C)O)NC(=O)[C@H]([C@@H](C)O)NC(=O)CNC1=O [compound 295] (H-GCRIGTCTVQ[Cit]LAHQIYQFTDKFKDNVAPRSKISPQT[Hyp]-NH2; disulfide 2-7; N-terminus assumed)
- EC50 [1]: > 5 µM
- Max ThT signal (%) [2]: 19.450%

SMILES: CC[C@H](C)[C@H](NC(=O)[C@H](CCC(N)=O)NC(=O)[C@H](Cc1c[nH]cn1)NC(=O)[C@H](C)NC(=O)[C@H](CC(C)C)NC(=O)[C@H](CCCNC(N)=O)NC(=O)[C@H](CCC(N)=O)NC(=O)[C@@H](NC(=O)[C@@H](NC(=O)[C@@H]1CSSC[C@H](NC(=O)CN)C(=O)N[C@@H](CCCNC(=N)N)C(=O)N[C@@H](Cc2c[nH]c3ccccc23)C(=O)NCC(=O)N[C@@H]([C@@H](C)O)C(=O)N1)[C@@H](C)O)C(C)C)C(=O)N[C@@H](Cc1ccc(O)cc1)C(=O)N[C@@H](CCC(N)=O)C(=O)N[C@@H](Cc1ccccc1)C(=O)N[C@H](C(=O)N[C@@H](CC(=O)O)C(=O)N[C@@H](CCCCN)C(=O)N[C@@H](CC(=O)O)C(=O)N[C@@H](CCCCN)C(=O)N[C@@H](CC(=O)O)C(=O)N[C@@H](CC(N)=O)C(=O)N[C@H](C(=O)N[C@@H](C)C(=O)N1CCC[C@H]1C(=O)N[C@@H](CCCNC(=N)N)C(=O)N[C@@H](CO)C(=O)N[C@@H](CCCCN)C(=O)N[C@H](C(=O)N[C@@H](CO)C(=O)N1CCC[C@H]1C(=O)N[C@@H](CCC(N)=O)C(=O)N[C@H](C(=O)N1C[C@H](O)C[C@H]1C(N)=O)[C@@H](C)O)[C@@H](C)CC)C(C)C)[C@@H](C)O [compound 296] (H-GCRWGTCTVQ[Cit]LAHQIYQFTDKDKDNVAPRSKISPQT[Hyp]-NH2; disulfide 2-7; N-terminus assumed)
- EC50 [1]: > 5 µM
- Max ThT signal (%) [2]: 26.050%

SMILES: CC[C@H](C)[C@H](NC(=O)[C@H](CCC(N)=O)NC(=O)[C@H](Cc1c[nH]cn1)NC(=O)[C@H](C)NC(=O)[C@H](CC(C)C)NC(=O)[C@H](CCCNC(N)=O)NC(=O)[C@H](CCC(N)=O)NC(=O)[C@@H](NC(=O)[C@@H](NC(=O)[C@@H]1CSSC[C@H](NC(=O)CN)C(=O)N[C@@H](CCCNC(=N)N)C(=O)N[C@@H]([C@@H](C)O)C(=O)NCC(=O)N[C@@H]([C@@H](C)O)C(=O)N1)[C@@H](C)O)C(C)C)C(=O)N[C@@H](Cc1ccc(O)cc1)C(=O)N[C@@H](CCC(N)=O)C(=O)N[C@@H](Cc1ccccc1)C(=O)N[C@H](C(=O)N[C@@H](CC(=O)O)C(=O)N[C@@H](CCCCN)C(=O)N[C@@H](CC(=O)O)C(=O)N[C@@H](CCCCN)C(=O)N[C@@H](CC(=O)O)C(=O)N[C@@H](CC(N)=O)C(=O)N[C@H](C(=O)N[C@@H](C)C(=O)N1CCC[C@H]1C(=O)N[C@@H](CCCNC(=N)N)C(=O)N[C@H](C(=O)N[C@@H](CCCCN)C(=O)N[C@H](C(=O)NCC(=O)N1CCC[C@H]1C(=O)N[C@@H](CCC(N)=O)C(=O)NCC(=O)N[C@@H](Cc1ccc(O)cc1)C(N)=O)C(C)C)[C@@H](C)O)C(C)C)[C@@H](C)O [compound 298] (H-GCRTGTCTVQ[Cit]LAHQIYQFTDKDKDNVAPRTKVGPQGY-NH2; disulfide 2-7; N-terminus assumed)
- EC50 [1]: > 5 µM
- Max ThT signal (%) [2]: 31.250%

SMILES: CC[C@H](C)[C@H](NC(=O)[C@H](CCCCN)NC(=O)[C@H](CO)NC(=O)[C@H](CCCNC(=N)N)NC(=O)[C@@H]1CCCN1C(=O)[C@H](C)NC(=O)[C@@H](NC(=O)[C@H](CC(N)=O)NC(=O)[C@H](CC(=O)O)NC(=O)[C@H](CCCCN)NC(=O)[C@H](CC(=O)O)NC(=O)[C@H](CCCCN)NC(=O)[C@H](CC(=O)O)NC(=O)[C@@H](NC(=O)[C@H](Cc1ccccc1)NC(=O)[C@H](CCC(N)=O)NC(=O)[C@H](Cc1ccc(O)cc1)NC(=O)[C@@H](NC(=O)[C@H](CCC(N)=O)NC(=O)[C@H](Cc1c[nH]cn1)NC(=O)[C@H](C)NC(=O)[C@H](CC(C)C)NC(=O)[C@H](CCCNC(N)=O)NC(=O)[C@H](CCC(N)=O)NC(=O)[C@@H](NC(=O)[C@@H](NC(=O)[C@@H]1CSSC[C@H](NC(=O)CN)C(=O)N[C@@H](CCCNC(=N)N)C(=O)N[C@@H]([C@@H](C)O)C(=O)NCC(=O)N[C@@H]([C@@H](C)O)C(=O)N1)[C@@H](C)O)C(C)C)[C@@H](C)CC)[C@@H](C)O)C(C)C)C(=O)NCC(=O)N1CCC[C@H]1C(=O)N[C@@H](CC(N)=O)C(=O)NCC(=O)N1C[C@H](O)C[C@H]1C(N)=O [compound 299] (H-GCRTGTCTVQ[Cit]LAHQIYQFTDKDKDNVAPRSKIGPNG[Hyp]-NH2; disulfide 2-7; N-terminus assumed)
- EC50 [1]: > 5 µM
- Max ThT signal (%) [2]: 26.550%

SMILES: CC[C@H](C)[C@H](NC(=O)[C@H](CCCCN)NC(=O)[C@@H](NC(=O)[C@H](CCCNC(=N)N)NC(=O)[C@@H]1CCCN1C(=O)[C@H](C)NC(=O)[C@@H](NC(=O)[C@H](CC(N)=O)NC(=O)[C@H](CC(=O)O)NC(=O)[C@H](CCCCN)NC(=O)[C@H](CC(=O)O)NC(=O)[C@H](CCCCN)NC(=O)[C@H](CC(=O)O)NC(=O)[C@@H](NC(=O)[C@H](Cc1ccccc1)NC(=O)[C@H](CCC(N)=O)NC(=O)[C@H](Cc1ccc(O)cc1)NC(=O)[C@@H](NC(=O)[C@H](CCC(N)=O)NC(=O)[C@H](Cc1c[nH]cn1)NC(=O)[C@H](C)NC(=O)[C@H](CC(C)C)NC(=O)[C@H](CCCNC(N)=O)NC(=O)[C@H](CCC(N)=O)NC(=O)[C@@H](NC(=O)[C@@H](NC(=O)[C@@H]1CSSC[C@H](NC(=O)CN)C(=O)N[C@@H](CCCNC(=N)N)C(=O)N[C@@H]([C@@H](C)O)C(=O)NCC(=O)N[C@@H]([C@@H](C)O)C(=O)N1)[C@@H](C)O)C(C)C)[C@@H](C)CC)[C@@H](C)O)C(C)C)[C@@H](C)O)C(=O)NCC(=O)N1CCC[C@H]1C(=O)N[C@@H](CCC(N)=O)C(=O)NCC(=O)N1C[C@H](O)C[C@H]1C(N)=O [compound 301] (H-GCRTGTCTVQ[Cit]LAHQIYQFTDKDKDNVAPRTKIGPQG[Hyp]-NH2; disulfide 2-7; N-terminus assumed)
- EC50 [1]: > 5 µM
- Max ThT signal (%) [2]: 16.950%
